“Also recorded” adds a separate entry of the source.
Assays:
CD4+ and CD8+ T cells = assay: Analysis of tumour-infiltrating lymphocytes; type: in vivo, C57BL/6 mice; conditions: after 12 days of treatment, flow cytometry
Description: The metastatic cell line, A9, was grown in the DMEM, as previously described without, the addition of antibiotics (penicillin and streptomycin, P/S). Once cells reached 75-80% confluence, they were trypsinized (0.05%, Gibco) and washed with HBSS (Hanks balanced salt solution). The cells were counted using the Bio-RAD TC20 automated cell counter and suspended to a concentration of […] in HBSS. Thirty-two synergistic female C57BL/6 mice, between the ages 6-8 weeks, were subcutaneously injected in the right flank with 50 μL containing 5×10^4 A9 metastatic tumour cells. Seven days following tumour inoculation i.p. treatment began daily for 12 days. Four treatment groups were studied, with eight animals per group. […] Body weights were measured three times a week and once tumours developed they were measured with calipers and tumour volume was calculated. Twelve days after starting treatment, mice were euthanized and tumours were collected and weighed. The tumours were then processed for flow cytometry analysis. Tumours were cut into small pieces and incubated RPMI (Gibco; with P/S 0.5%, Sodium pyruvate 1%, and L-glutamine 1%) and 3 mg/mL collagenase A (Roche) for one hour at 37° C. with shaking. Dissociated tumour cells were passed through a 100 μm filter and spun down at 15,000×RCF for 3 minutes. The pellet was washed once in FACs buffer (2% FBS in PBS) and spun down. The pellet was next suspended in red blood cell (RBC) lysis buffer and kept at room temperature for 5 minutes before being neutralized by the addition of 5 ml of PBS and spun down. If pellets were still found to contain RBCs this step was repeated. Once all RBCs were removed cells were suspended in FACs buffer to a concentration of 10^7 cells/mL. A total volume of 200 ul of cells from each tumour were added to a 96 well plate (Falcon) and incubated with Fc Blocker (Biolegend, 1:400) for twenty minutes at 4° C. The 96 well plate was spun down at 1,200 rmp for three minutes and supernatant was removed. The cells were then suspended in 150 ul of FACs buffer containing anti-CD8a (PE-Cy7, 1:200, eBioscience) and CD4 (APC, 1:200, Biolegend) antibodies and incubated at 4° Celsius for 20 minutes. The cells were washed twice and spun down using FACs buffer before being to flow cytometry tubes in a final volume of 200 ul of FACs buffer containing 7AAD (Biolegend 1:200). Flow cytometry was performed on LSRII (BDBiosciences) and analysis was done using FlowJo (Flow cytometry Analysis Software).
Analysis of tumour-infiltrating lymphocytes (TILs). Tumour-infiltrating T lymphocyte (either CD4^+ or CD8^+ T cells) infiltration was evaluated in tumours of mice following 2-week treatment with either compounds or controls. Tumours at the site of initial injection were removed from tumour-bearing mice. Following tumour dissociation in the presence of collagenase A (Roche) and erythrocyte lysis, the tumour cells were then washed and prepared as single-cell suspensions to detect TILs. Before staining with antibodies, the cells were incubated with Fc Blocker (Ebiosciences) for 20 minutes at 4° C. The tumour cells were then washed and stained with anti-CD4-APC (Biolegend), anti-CD8-PECy7 (eBiosciences) and 7-AAD (Biolegend) viability stain. Using flow cytometry, 7-AAD positive dead cells were gated out and the remaining population was assessed for CD4^+ and CD8^+ expression. Data were acquired using a BD™ LSR II flow cytometer (BD Biosciences) with FACSDiva™ software and analyzed with FlowJo software (Treestar).

HDAC9 = biological target: T1, HDAC9 (Homo sapiens, UniProt Q9UKV0); assay: Individualized HDAC assay, HDAC9; type: biochemical; conditions: purified enzyme, 5 to 0.02 μM
T1 construct: purchased BPS Biosciences
Description: The activity of the curcuphenol analogues was assessed with purified HDAC enzymes from all classes I, II, and IV, as well as a select member of HDAC class III (SIRT1). HDACs 1-9 and SIRT1 were evaluated using HDAC Fluorogenic Assay Kits (BPS Biosciences). All assays were completed in black-sided clear-bottom 96 well plates (PerkinElmer), and all treatments were plated in triplicates. Treatment started at 5 μM and was two-fold diluted to a concentration 0.02 μM. The assays were measured using the Synergy HI hybrid reader (BioTek) and Gen5 software (BioTek), excitation was set to 360 nm and detection was measured at 450 nm with a gain of 100. Alternatively HDAC 10 and 11 (BPS Biosciences) were optimized for HDAC concentration using the HDAC-Glo™ I/II Assay and Screening System (Promega). Following optimization each HDAC was run following the Promega protocol in black-sided clear-bottomed 96 well plates in triplicates with same treatments listed above (PerkinElmer). Luminescence was read 30 minutes after HDAC-Glo™I/II reagent was added using the Synergy HI hybrid reader (BioTek) and Gen5 software (Bio-Tek). […] To calculate percent activity, the average of blank wells was subtracted from all treatment groups. The relative mean of activity of the HDAC being measured was determined and all wells that received treatment were divided this average, to give a percentage of activity.
To evaluate the effect of the compounds on specific HDACs, their activity was assessed with purified HDAC enzymes from all classes I, II, and IV, as well as a select member of HDAC class III (SIRT1). HDACs 1-9 and SIRT1 were evaluated using HDAC Fluorogenic Assay Kits (BPS Biosciences) following the manufacturer's recommendations. Compound treatment started at 5 μM and was two-fold diluted to a concentration 0.02 μM. […] The assays were measured using the Synergy HI hybrid reader (BioTek) and Gen5 software (Bio-Tek). […] To calculate the fold change in HDAC activity, the values from each treated well were divided by the relative mean of activity of the specific HDAC being measured.

T1 sequence (Q9UKV0 whole entry): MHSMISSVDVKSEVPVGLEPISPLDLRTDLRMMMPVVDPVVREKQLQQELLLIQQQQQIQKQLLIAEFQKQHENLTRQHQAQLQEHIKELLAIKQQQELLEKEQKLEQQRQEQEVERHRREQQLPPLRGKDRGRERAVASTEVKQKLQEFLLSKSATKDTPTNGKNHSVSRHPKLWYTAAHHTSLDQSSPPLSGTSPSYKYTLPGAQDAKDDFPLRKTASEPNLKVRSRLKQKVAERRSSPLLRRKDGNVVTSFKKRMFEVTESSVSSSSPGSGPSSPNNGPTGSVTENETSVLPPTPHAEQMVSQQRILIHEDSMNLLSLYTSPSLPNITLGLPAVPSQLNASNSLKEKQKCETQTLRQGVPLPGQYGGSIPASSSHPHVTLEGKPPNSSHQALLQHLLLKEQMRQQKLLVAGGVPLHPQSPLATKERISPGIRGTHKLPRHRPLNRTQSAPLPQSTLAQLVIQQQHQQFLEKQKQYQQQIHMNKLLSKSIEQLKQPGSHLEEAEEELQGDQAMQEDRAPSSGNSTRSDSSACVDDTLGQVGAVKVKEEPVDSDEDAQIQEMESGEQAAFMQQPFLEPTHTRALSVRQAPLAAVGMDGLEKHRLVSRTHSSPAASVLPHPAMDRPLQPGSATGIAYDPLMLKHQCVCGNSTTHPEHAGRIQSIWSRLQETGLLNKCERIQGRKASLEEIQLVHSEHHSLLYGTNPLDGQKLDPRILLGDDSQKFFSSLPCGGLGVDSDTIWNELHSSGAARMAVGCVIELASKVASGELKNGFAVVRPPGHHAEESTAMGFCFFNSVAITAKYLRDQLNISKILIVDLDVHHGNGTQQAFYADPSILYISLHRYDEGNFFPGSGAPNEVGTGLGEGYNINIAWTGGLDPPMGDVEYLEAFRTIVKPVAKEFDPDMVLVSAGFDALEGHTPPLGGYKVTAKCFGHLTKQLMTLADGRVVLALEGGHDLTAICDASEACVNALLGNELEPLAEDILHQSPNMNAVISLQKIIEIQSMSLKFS

Compound | CD4+ T cell infiltration of tumours (CD4+ and CD8+ T cells) | CD8+ T cell (CTL) infiltration of tumours (CD4+ and CD8+ T cells) | HDAC9 activity (HDAC9) | HDAC9 activity (HDAC9; listed as PO-3-97-1)
CC(C)=CCCCc1ccc(C)cc1O [P02-113] | no significant infiltration or difference; also recorded: did not appear to increase | no significant change in CTL infiltration | no change in activity; also recorded: did not affect the activity; also recorded: unaffected | 
COc1ccc(C(C)CCC=C(C)C)c(O)c1 (stereo not shown) [P03-97-1] | no significant infiltration or difference; also recorded: did not appear to increase | greatest CD8+ infiltration; also recorded: increase in the CTL infiltration | no change in activity; also recorded: unaffected | did not affect the activity

— patent US20220105051A1, “COMPOUNDS FOR INCREASING MHC-I EXPRESSION AND MODULATING HISTONE DEACETYLASE ACTIVITY” (Cava Healthcare Inc., priority 2019, published 2022)
